Source: ChEMBL document CHEMBL1201862, “PubChem BioAssay data set” (2004)
One block for each compound: values may come before it. Calls of active or inactive are those of the source.

Legend:
Fatty acid synthase = Fatty acid synthase (Homo sapiens, UniProt P49327); experiment: FAS thioesterase domain inhibitors, SAR follow-up, biochemical, endpoint fluorescence intensity, powder samples (AID 652164); type: functional
[1] = molecular target: T1, Probable nicotinate-nucleotide adenylyltransferase (Staphylococcus aureus (strain N315), UniProt P65502); type: functional, Staphylococcus aureus subsp. aureus N315;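 on IC50 Mean: confirmatory dose-response retesting of NadD inhibitor hits first found in an ultra-high-throughput screen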
[2] = molecular target: T1, Probable nicotinate-nucleotide adenylyltransferase; type: functional, Staphylococcus aureus subsp. aureus N315; details: read-out: IC50_Mean
[3] = cytotoxicity toward NIH3T3 fibroblasts, dose response, counter-screen, cell-based, ATP luminescence, mouse fibroblasts (AID 2010); type: functional;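 further: cells exposed to compound for about 90 hours before reading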
[4] = inhibitors of intracellular T. cruzi replication, confirmation, NIH3T3 host cells, beta-gal luminescence (AID 2044); type: functional, cell-based;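 further: intracellular parasites grown in NIH/3T3 mouse fibroblasts as host cells; luminescent beta-galactosidase reporter signal from transgenic T. cruzi replicating inside host cells; inhibitors lower the luminescence signal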
[5] = cytotoxicity in HeLa cells, dose response, cytotoxicity control, cell-based, plate reader, dry powder (AID 651946); type: functional
cells = type: functional, cell-based; details: HEK-CNG
Galanin receptor type 3 = Galanin receptor type 3 (Homo sapiens, UniProt O60755); experiment: Fluorescence-based cell-based primary high throughput dose response assay to identify antagonists of the Galanin Receptor 3 (GalR3).; type: functional
Chain of Galanin receptor type 3 (O60755 whole entry): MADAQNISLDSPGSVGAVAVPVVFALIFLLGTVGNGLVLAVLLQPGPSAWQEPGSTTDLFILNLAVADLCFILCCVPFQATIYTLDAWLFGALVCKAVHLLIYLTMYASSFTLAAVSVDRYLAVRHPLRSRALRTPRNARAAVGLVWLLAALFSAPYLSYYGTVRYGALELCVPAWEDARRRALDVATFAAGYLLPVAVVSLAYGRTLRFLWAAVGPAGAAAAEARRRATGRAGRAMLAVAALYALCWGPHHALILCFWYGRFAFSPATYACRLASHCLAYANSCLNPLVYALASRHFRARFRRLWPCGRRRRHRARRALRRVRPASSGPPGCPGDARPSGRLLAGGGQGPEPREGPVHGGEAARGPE

[6] = molecular target: Kappa-type opioid receptor (Homo sapiens, UniProt P41145); experiment: OPRK1 antagonists, late-stage follow-up, cell-based, fluorescence, dose response (AID 652032); type: functional
Chain of Kappa-type opioid receptor (P41145 whole entry): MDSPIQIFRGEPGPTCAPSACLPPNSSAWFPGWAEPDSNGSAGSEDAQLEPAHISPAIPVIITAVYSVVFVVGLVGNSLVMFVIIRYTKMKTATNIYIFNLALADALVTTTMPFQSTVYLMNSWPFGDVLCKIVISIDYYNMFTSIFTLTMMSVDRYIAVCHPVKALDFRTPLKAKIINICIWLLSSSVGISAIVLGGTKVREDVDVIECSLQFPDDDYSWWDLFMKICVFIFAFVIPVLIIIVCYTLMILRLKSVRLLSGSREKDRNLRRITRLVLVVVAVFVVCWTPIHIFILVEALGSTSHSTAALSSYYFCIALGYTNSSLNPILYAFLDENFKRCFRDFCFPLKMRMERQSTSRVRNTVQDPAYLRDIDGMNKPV

A549 = experiment: A549 cell toxicity, dose response, cytotoxicity control, plate reader, cherry-pick samples (AID 687028); type: functional, cell-based; details: Homo sapiens
Albumin = Albumin (Bos taurus, UniProt P02769); experiment: Counterscreen for inhibitors of T-cell receptor (TCR)-CD3 interaction: Fluorescence-based biochemical high throughput dose response assay to identify inhibitors of T-cell receptor (TCR)-CD3 interaction using a TAMRA-labeled BSA probe.; type: functional
Chain of Albumin (P02769 whole entry): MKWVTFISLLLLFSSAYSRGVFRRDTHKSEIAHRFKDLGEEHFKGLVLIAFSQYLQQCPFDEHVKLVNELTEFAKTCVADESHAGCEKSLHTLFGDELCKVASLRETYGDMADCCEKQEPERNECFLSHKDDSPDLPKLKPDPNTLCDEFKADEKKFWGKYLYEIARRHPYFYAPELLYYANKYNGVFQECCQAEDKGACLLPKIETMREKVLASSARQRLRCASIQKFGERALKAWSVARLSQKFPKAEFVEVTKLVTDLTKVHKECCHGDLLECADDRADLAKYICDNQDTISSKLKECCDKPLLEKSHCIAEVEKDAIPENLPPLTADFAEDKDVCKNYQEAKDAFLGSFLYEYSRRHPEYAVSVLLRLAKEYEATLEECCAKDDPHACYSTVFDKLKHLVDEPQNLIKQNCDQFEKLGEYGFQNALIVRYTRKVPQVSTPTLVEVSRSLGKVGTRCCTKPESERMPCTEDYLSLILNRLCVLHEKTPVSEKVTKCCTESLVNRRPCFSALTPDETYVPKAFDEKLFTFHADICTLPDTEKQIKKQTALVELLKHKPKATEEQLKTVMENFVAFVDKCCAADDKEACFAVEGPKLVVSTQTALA

Chain of Fatty acid synthase (P49327 whole entry, the tested form may be a part): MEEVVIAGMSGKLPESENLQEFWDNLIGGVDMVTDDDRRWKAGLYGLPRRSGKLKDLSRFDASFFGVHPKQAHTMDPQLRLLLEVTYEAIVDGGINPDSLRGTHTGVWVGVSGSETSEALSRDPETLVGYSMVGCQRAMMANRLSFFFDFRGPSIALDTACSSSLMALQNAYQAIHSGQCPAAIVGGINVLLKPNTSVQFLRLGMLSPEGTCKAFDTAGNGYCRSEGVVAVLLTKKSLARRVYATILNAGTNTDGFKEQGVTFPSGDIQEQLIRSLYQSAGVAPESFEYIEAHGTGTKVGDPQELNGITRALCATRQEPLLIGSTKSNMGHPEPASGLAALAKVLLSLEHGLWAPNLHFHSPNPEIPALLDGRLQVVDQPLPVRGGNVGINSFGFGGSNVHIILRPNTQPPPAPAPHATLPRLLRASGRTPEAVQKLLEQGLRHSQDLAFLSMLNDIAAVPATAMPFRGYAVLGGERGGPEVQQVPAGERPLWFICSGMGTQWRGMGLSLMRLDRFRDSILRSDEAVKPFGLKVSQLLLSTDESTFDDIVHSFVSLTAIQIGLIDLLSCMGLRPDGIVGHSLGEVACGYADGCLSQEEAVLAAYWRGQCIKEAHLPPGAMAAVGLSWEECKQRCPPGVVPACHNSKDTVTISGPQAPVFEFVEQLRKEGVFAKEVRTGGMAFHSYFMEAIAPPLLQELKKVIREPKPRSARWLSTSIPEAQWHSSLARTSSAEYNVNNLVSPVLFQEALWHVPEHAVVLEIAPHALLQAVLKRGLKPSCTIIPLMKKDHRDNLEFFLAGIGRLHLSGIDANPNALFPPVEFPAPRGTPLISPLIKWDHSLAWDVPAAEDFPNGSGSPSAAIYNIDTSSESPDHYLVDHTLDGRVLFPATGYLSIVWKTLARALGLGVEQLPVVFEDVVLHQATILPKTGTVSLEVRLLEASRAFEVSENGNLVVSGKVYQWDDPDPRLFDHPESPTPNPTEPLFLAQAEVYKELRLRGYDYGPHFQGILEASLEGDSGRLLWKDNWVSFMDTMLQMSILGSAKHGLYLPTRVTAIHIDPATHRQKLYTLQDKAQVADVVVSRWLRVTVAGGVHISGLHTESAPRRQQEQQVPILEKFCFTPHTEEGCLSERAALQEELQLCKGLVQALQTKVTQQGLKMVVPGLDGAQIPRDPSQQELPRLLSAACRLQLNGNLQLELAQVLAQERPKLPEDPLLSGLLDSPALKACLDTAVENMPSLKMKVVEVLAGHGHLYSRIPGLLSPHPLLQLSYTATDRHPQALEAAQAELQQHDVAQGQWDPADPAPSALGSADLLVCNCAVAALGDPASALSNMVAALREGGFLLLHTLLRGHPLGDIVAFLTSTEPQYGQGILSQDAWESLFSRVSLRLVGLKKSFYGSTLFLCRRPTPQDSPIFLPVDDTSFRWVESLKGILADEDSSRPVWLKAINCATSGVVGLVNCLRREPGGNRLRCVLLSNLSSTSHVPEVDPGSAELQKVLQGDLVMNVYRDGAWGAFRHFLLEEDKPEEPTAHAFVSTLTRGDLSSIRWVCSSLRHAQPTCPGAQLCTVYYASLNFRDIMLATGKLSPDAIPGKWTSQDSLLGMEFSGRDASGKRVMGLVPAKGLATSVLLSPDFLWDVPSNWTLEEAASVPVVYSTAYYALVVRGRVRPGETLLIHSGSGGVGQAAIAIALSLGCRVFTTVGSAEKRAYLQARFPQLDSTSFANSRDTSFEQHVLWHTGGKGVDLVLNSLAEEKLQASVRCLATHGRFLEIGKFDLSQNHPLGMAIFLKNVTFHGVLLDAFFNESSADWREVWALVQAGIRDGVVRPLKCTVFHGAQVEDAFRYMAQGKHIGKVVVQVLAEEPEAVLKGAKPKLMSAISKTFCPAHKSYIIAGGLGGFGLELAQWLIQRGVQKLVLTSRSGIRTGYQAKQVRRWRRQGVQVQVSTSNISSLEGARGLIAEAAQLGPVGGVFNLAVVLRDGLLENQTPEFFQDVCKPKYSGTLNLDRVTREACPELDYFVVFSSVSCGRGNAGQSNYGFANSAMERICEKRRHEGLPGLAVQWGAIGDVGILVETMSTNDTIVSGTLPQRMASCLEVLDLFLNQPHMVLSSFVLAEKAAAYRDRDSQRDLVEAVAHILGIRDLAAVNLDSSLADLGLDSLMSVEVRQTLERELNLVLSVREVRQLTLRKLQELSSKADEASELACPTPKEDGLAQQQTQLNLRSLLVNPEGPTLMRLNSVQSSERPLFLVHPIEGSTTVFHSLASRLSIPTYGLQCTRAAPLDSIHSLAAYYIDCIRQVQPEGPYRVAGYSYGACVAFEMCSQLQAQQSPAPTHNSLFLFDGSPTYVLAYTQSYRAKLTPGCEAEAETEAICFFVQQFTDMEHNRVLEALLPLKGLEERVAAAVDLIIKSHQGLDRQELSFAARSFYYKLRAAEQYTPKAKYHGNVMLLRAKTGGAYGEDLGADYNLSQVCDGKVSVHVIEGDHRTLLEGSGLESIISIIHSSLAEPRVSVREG

IC50 (Fatty acid synthase): 11.4 µM (active)
Structure (SMILES): CC(=O)Nc1nc(-c2ccc(S(=O)(=O)N3CCOCC3)cc2)cs1

Structure (SMILES): COc1ccc(-c2cc(C(=O)Nc3cccc(S(=O)(=O)NCc4ccco4)c3)c3ccccc3n2)cc1OC
IC50 [1]: 13.8 µM (active)
IC50 [2]: 25.3 µM (active)
EC50 [3]: > 60 µM (not active)
EC50 [4]: 1.64 µM (active)

Structure (SMILES): [O-][S+](Cc1cn(-c2ccccc2)nn1)c1nnc(-c2ccc(Cl)cc2)o1 (stereo unspecified)
AC50 [5]: 15.6 µM (active)

Structure (SMILES): CC(CC(=O)Nc1ccc(Cl)c(S(=O)(=O)N2CCOCC2)c1)c1ccccc1 (stereo unspecified)
EC50 (cells): > 29.9 µM (inactive)
IC50 (Galanin receptor type 3): 1.21 µM (active)

IC50 [6]: 11.7 µM (inactive)
Structure (SMILES): COC(=O)c1cc(Br)cnc1N1CCCC(NC2CCCCC2)C1 (stereo unspecified)

Structure (SMILES): C[C@@H]1CCCCO[C@@H](CN(C)C(=O)Cc2ccccc2)[C@H](C)CN([C@H](C)CO)C(=O)c2cc(NS(=O)(=O)c3ccc(Cl)cc3)ccc2O1
AC50 (A549): 31.2 µM (active)

IC50 (Albumin): > 94.1 µM (inactive)
Structure (SMILES): CCc1ccc(NC(=O)NNC(=O)c2ccc3ccccc3c2O)cc1
